SMILES strings stand for the structures. Values joined by “and” are separate entries in the source; they are usually repeats but may differ in a detail not shown here. Equal entries are not always repeated. Toxic doses and inconclusive results are not listed.

The experiment deals with CD2F1 mice, L1210 leukemia sc, survival T/C. Briefly: NCI In Vivo Anticancer Drug Screen. Data for tumor model L1210 Leukemia (subcutaneous) in CD2F1 (CDF1) mice. As to conditions: endpoint: median survival time, higher = longer survival. How it is done: The antitumor activity of compounds was measured in mice bearing transplantable tumors. Survival or tumor size were measured and the results are expressed as the measurement made in the treated group (T) divided by the measurement made in the vehicle treated control group (C). The tumor model used in this assay is L1210 Leukemia (subcutaneous) in CD2F1 (CDF1) mice

[1] abbreviates: dose: 25.0 mg/kg/injection, schedule: Q01DX009 (ip), vehicle: saline.
The mark [2] stands for this setting: dose: 50.0 mg/kg/injection, schedule: Q01DX009 (ip), vehicle: saline.
The mark [3] stands for this setting: dose: 100.0 mg/kg/injection, schedule: Q01DX009 (ip), vehicle: saline.
The mark [4] stands for this setting: dose: 200.0 mg/kg/injection, schedule: Q01DX009 (ip), vehicle: saline.

As to `CN(CCN(C)C(=O)CCOS(C)(=O)=O)C(=O)CCOS(C)(=O)=O`, the T/C is 106 % of control and 107 % of control under setting [1]; 123 % of control under setting [2]; 171 % of control under setting [3]; 103 % of control and 94 % of control under setting [4].
As to `CCN(CC)c1ccc2cc3ccc(=[N+](CC)CC)cc-3oc2c1`, the T/C reads like this: (dose: 0.5 mg/kg/injection, schedule: Q01DX Z (sc), vehicle: methylcellulose (MC)) 100 % of control; (dose: 1.0 mg/kg/injection, schedule: Q01DX Z (sc), vehicle: methylcellulose (MC)) 100 % of control; (dose: 2.0 mg/kg/injection, schedule: Q01DX Z (sc), vehicle: methylcellulose (MC)) 100 % of control; (dose: 4.0 mg/kg/injection, schedule: Q01DX Z (sc), vehicle: methylcellulose (MC)) 100 % of control; (dose: 8.0 mg/kg/injection, schedule: Q01DX Z (sc), vehicle: methylcellulose (MC)) 100 % of control.
For `Nc1nc(=S)c2[nH]cnc2[nH]1`, the T/C reads like this: (dose: 2.16 mg/kg/injection, schedule: Q01DX Z (sc), vehicle: other) 177 % of control; (dose: 3.6 mg/kg/injection, schedule: Q01DX Z (sc), vehicle: other) 177 % of control; (dose: 6.0 mg/kg/injection, schedule: Q01DX Z (sc), vehicle: other) 177 % of control; (dose: 10.1 mg/kg/injection, schedule: Q01DX Z (sc), vehicle: other) 166 % of control; (dose: 16.9 mg/kg/injection, schedule: Q01DX Z (sc), vehicle: other) 161 % of control.
On to `Nc1ncn(C2OC(CO)C(O)C2O)c(=O)n1` (stereo unspecified), for which the T/C runs as follows: (dose: 0.2 mg/kg/injection, schedule: Q01DX009 (ip), vehicle: saline) 97 % of control; (dose: 0.2 mg/kg/injection, schedule: Q01DX009 (sc), vehicle: saline) 102 % of control; (dose: 0.4 mg/kg/injection, schedule: Q01DX009 (ip), vehicle: saline) 113 % of control; (dose: 0.4 mg/kg/injection, schedule: Q01DX009 (sc), vehicle: saline) 115 % of control and 119 % of control; (dose: 0.8 mg/kg/injection, schedule: Q01DX009 (sc), vehicle: saline) 120 % of control; (dose: 1.07 mg/kg/injection, schedule: Q01DX009 (sc), vehicle: saline) 158 % of control. Further, the T/C (dose: 1.6 mg/kg/injection, schedule: Q01DX009 (ip), vehicle: saline) is 150 % of control; the T/C (dose: 2.1 mg/kg/injection, schedule: Q01DX009 (ip), vehicle: saline) was 178 % of control; the T/C (dose: 2.1 mg/kg/injection, schedule: Q01DX009 (sc), vehicle: saline) was 187 % of control; the T/C (dose: 7.2 mg/kg/injection, schedule: Q01DX009 (ip), vehicle: saline) was 206 % of control and 88 % of control; the T/C (dose: 9.6 mg/kg/injection, schedule: Q01DX009 (ip), vehicle: saline) is 113 % of control; the T/C (dose: 28.8 mg/kg/injection, schedule: Q01DX009 (sc), vehicle: saline) was 106 % of control.
For `Cc1cccnc1`, the T/C is, setting by setting: (dose: 108.0 mg/kg/injection, schedule: Q01DX Z (sc), vehicle: water) 100 % of control; (dose: 180.0 mg/kg/injection, schedule: Q01DX Z (sc), vehicle: water) 100 % of control.
For `C[C@]12C[C@H](O)[C@H]3[C@@H](CCC4=CC(=O)CC[C@@]43C)[C@@H]1CC[C@@H]2C(=O)CO`, the T/C (dose: 180.0 mg/kg/injection, schedule: Q01DX Z (sc), vehicle: methylcellulose (MC)) was 100 % of control.
Consider `CC(=O)OC1COC(NC(=O)N(CCCl)N=O)C(OC(C)=O)C1OC(C)=O` (stereo unspecified), for which the T/C (dose: 0.75 mg/kg/injection, schedule: Q01DX009 (ip), vehicle: saline with Tween-80) is 104 % of control; the T/C (dose: 1.5 mg/kg/injection, schedule: Q01DX009 (ip), vehicle: saline with Tween-80) was 102 % of control; the T/C (dose: 3.0 mg/kg/injection, schedule: Q01DX009 (ip), vehicle: saline with Tween-80) was 102 % of control and 122 % of control; the T/C (dose: 12.0 mg/kg/injection, schedule: Q01DX009 (ip), vehicle: saline with Tween-80) is 158 % of control and 297 % of control.
On to `CC(=O)NNC(=O)c1ccccn1`, for which the T/C (dose: 12.5 mg/kg/injection, schedule: Q01DX009 (ip), vehicle: Klucel (hydroxypropylcellulose) (HPC)) is 102 % of control; the T/C (dose: 25.0 mg/kg/injection, schedule: Q01DX009 (ip), vehicle: Klucel (hydroxypropylcellulose) (HPC)) was 102 % of control; the T/C under setting [1] was 102 % of control; the T/C (dose: 25.0 mg/kg/injection, schedule: Q01DX009 (sc), vehicle: saline) is 98 % of control; the T/C (dose: 50.0 mg/kg/injection, schedule: Q01DX009 (ip), vehicle: Klucel (hydroxypropylcellulose) (HPC)) was 105 % of control; the T/C under setting [2] is 104 % of control. Moreover, the T/C was 105 % of control and 109 % of control (dose: 50.0 mg/kg/injection, schedule: Q01DX009 (sc), vehicle: saline); 113 % of control (dose: 100.0 mg/kg/injection, schedule: Q01DX009 (ip), vehicle: Klucel (hydroxypropylcellulose) (HPC)); 106 % of control under setting [3]; 110 % of control and 113 % of control (dose: 100.0 mg/kg/injection, schedule: Q01DX009 (sc), vehicle: saline); 112 % of control (dose: 200.0 mg/kg/injection, schedule: Q01DX009 (ip), vehicle: Klucel (hydroxypropylcellulose) (HPC)); 114 % of control under setting [4]. The T/C (dose: 200.0 mg/kg/injection, schedule: Q01DX009 (sc), vehicle: saline) is 111 % of control and 119 % of control.
Take `COc1cccc2c1C(=O)c1c(O)c3c(c(O)c1C2=O)CC(O)(C(C)=O)CC3OC1CC(N)C(O)C(C)O1` (stereo unspecified): the T/C reads like this: (dose: 2.9 mg/kg/injection, schedule: Q01DX009 (ip), vehicle: saline) 96 % of control; (dose: 5.8 mg/kg/injection, schedule: Q01DX009 (ip), vehicle: saline) 96 % of control; (dose: 11.7 mg/kg/injection, schedule: Q01DX009 (ip), vehicle: saline) 98 % of control; (dose: 23.4 mg/kg/injection, schedule: Q01DX009 (ip), vehicle: saline) 103 % of control; (dose: 46.8 mg/kg/injection, schedule: Q01DX009 (ip), vehicle: saline) 108 % of control.

Values taken from PubChem BioAssay AID258 (DTP/NCI, 2004).
